Reference: patent publication US8889712B2, “IAP antagonists” (Bristol-Myers Squibb Company, priority 2012, dated 2014)
Like-named read-outs stand apart in the source and are kept apart here.

Experiments:
XIAP BIR3 = target: T1, XIAP BIR3 (Homo sapiens, UniProt P98170); experiment: XIAP-BIR3/SMAC Homogeneous Time Resolved Fluorescence (HTRF) Assay; assay type: binding
T1 construct: His-BIR3 (241-356, XIAP)
Summary of the method: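 Competition HTRF between XIAP-BIR3 and SMAC; reaction 60 min at room temperature, then anti-6×His-terbium Fab detection for a further 30 min.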

XIAP BIR2-3 = target: T2, XIAP BIR2-3 (Homo sapiens, UniProt P98170, C202A/C213G); experiment: XIAP-BIR2-3 dimeric SMAC Peptide Homogeneous Time Resolved Fluorescence (HTRF) Assay; assay type: binding
T2 construct: His-BIR2-3 (125-356, C202A/C213G, XIAP)
T2 sequence (P98170 125-356 C202A/C213G): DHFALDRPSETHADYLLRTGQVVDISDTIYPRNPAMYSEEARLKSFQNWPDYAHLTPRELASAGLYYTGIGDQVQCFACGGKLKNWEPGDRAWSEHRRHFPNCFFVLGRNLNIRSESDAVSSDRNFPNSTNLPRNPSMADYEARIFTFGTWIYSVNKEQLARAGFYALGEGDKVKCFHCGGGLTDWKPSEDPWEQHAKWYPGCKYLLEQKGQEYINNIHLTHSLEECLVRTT
Protocol: B. […] Assays were performed in black, flat-bottom, 384-well plates. […] Compounds were dissolved at 3 mM in dimethylsulfoxide (DMSO) and evaluated at eleven serially diluted concentrations. IC50 and Ki values were derived by non-linear regression analysis.

[1] = 1 nM N-His-BIR3 (241-356, XIAP), 5 nM fluorescein labeled SMAC peptide, HTRF signal, read-out: XIAP BIR3 IC50
[2] = 0.5 nM N-His-BIR2-3 (125-356, C202A/C213G, XIAP), 20 nM fluorescein labeled dimeric SMAC peptide, HTRF signal, read-out: XIAP BIR2-3 IC50

T1 sequence (P98170 241-356): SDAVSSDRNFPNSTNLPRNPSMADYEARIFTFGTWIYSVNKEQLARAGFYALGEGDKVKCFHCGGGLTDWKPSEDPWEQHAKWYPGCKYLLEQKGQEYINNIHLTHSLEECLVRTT

CN[C@@H](C)C(=O)N[C@H](C(=O)N1C[C@@H](c2ccc3c(c2)CN(C(=O)[C@@H](NC(=O)[C@H](C)NC)C(C)(C)C)[C@H](C(=O)N[C@@H]2CCCc4ccccc42)C3)C[C@H]1C(=O)N[C@@H](Cc1ccccc1)C(=O)NC(C)C)C(C)(C)C [Example 56, (S)-2-((S)-3,3-Dimethyl-2-((S)-2-(methylamino)propanamido)butanoyl)-7-((3R,5S)-1-((S)-3,3-dimethyl-2-((S)-2-(methylamino)propanamido)butanoyl)-5-(((S)-1-(isopropylamino)-1-oxo-3-phenylpropan-2-yl)carbamoyl)pyrrolidin-3-yl)-N-((R)-1,2,3,4-tetrahydronaphthalen-1-yl)-1,2,3,4-tetrahydroisoquinoline-3-carboxamide]
IC50 (XIAP BIR3): 8.8 nM
IC50 (XIAP BIR2-3): 2 nM

CN[C@@H](C)C(=O)N[C@H](C(=O)N1C[C@@H](c2ccc3c(c2)CN(C(=O)[C@@H](NC(=O)[C@H](C)NC)C(C)(C)C)[C@H](C(=O)N[C@@H]2CCCc4ccccc42)C3)C[C@H]1C(=O)N[C@@H](Cc1ccccc1)C(=O)Nc1ccc(-c2cnco2)cc1)C(C)(C)C [Example 57, (S)-2-((S)-3,3-Dimethyl-2-((S)-2-(methylamino)propanamido)butanoyl)-7-((3R,5S)-1-((S)-3,3-dimethyl-2-((S)-2-(methylamino)propanamido)butanoyl)-5-(((S)-1-((4-(oxazol-5-yl)phenyl)amino)-1-oxo-3-phenylpropan-2-yl)carbamoyl)pyrrolidin-3-yl)-N-((R)-1,2,3,4-tetrahydronaphthalen-1-yl)-1,2,3,4-tetrahydroisoquinoline-3-carboxamide]
IC50 (XIAP BIR3; [1]): 9.9 nM
IC50 (XIAP BIR2-3; [2]): 2.6 nM

CN[C@@H](C)C(=O)N[C@H](C(=O)N1C[C@@H](c2ccc3c(c2)CN(C(=O)[C@@H](NC(=O)[C@H](C)NC)C(C)(C)C)[C@H](C(=O)N[C@@H]2CCCc4ccccc42)C3)C[C@H]1C(=O)N[C@@H](Cc1ccccc1)C(=O)Nc1cccc(-c2cnco2)c1)C(C)(C)C [Example 58, (S)-2-((S)-3,3-Dimethyl-2-((S)-2-(methylamino)propanamido)butanoyl)-7-((3R,5S)-1-((S)-3,3-dimethyl-2-((S)-2-(methylamino)propanamido)butanoyl)-5-(((S)-1-((3-(oxazol-5-yl)phenyl)amino)-1-oxo-3-phenylpropan-2-yl)carbamoyl)pyrrolidin-3-yl)-N-((R)-1,2,3,4-tetrahydronaphthalen-1-yl)-1,2,3,4-tetrahydroisoquinoline-3-carboxamide]
IC50 (XIAP BIR3; [1]): 7.6 nM
IC50 (XIAP BIR2-3; [2]): 2.3 nM

CN[C@@H](C)C(=O)N[C@H](C(=O)N1C[C@@H](c2ccc3c(c2)CN(C(=O)[C@@H](NC(=O)[C@H](C)NC)C(C)(C)C)[C@H](C(=O)N[C@@H]2CCCc4ccccc42)C3)C[C@H]1C(=O)N[C@@H](Cc1ccccc1)C(=O)Nc1cccc(C#N)c1)C(C)(C)C [Example 59, (S)-7-((3R,5S)-5-(((S)-1-((3-Cyanophenyl)amino)-1-oxo-3-phenylpropan-2-yl)carbamoyl)-1-((S)-3,3-dimethyl-2-((S)-2-(methylamino)propanamido)butanoyl)pyrrolidin-3-yl)-2-((S)-3,3-dimethyl-2-((S)-2-(methylamino)propanamido)butanoyl)-N-((R)-1,2,3,4-tetrahydronaphthalen-1-yl)-1,2,3,4-tetrahydroisoquinoline-3-carboxamide]
IC50 (XIAP BIR3; [1]): 6.7 nM
IC50 (XIAP BIR2-3; [2]): 2.2 nM

CN[C@@H](C)C(=O)N[C@H](C(=O)N1C[C@@H](c2ccc3c(c2)CN(C(=O)[C@@H](NC(=O)[C@H](C)NC)C(C)(C)C)[C@H](C(=O)N[C@@H]2CCCc4ccccc42)C3)C[C@H]1C(=O)N[C@@H](Cc1ccccc1)C(=O)NCCOC)C(C)(C)C [Example 61, (S)-2-((S)-3,3-Dimethyl-2-((S)-2-(methylamino)propanamido)butanoyl)-7-((3R,5S)-1-((S)-3,3-dimethyl-2-((S)-2-(methylamino)propanamido)butanoyl)-5-(((S)-1-((2-methoxyethyl)amino)-1-oxo-3-phenylpropan-2-yl)carbamoyl)pyrrolidin-3-yl)-N-((R)-1,2,3,4-tetrahydronaphthalen-1-yl)-1,2,3,4-tetrahydroisoquinoline-3-carboxamide]
IC50 (XIAP BIR3; [1]): 22.1 nM
IC50 (XIAP BIR2-3; [2]): 3.4 nM
